Data as given in US6849405B2, “Translation enhancer element of the human amyloid precursor protein gene” (The Brigham and Women's Hospital, Inc., priority 1997, dated 2005).

Assays:
[1] = system: pSV2CAT parental vector; test: CAT reporter activity in astrocytoma cells transfected with parental vector pSV2CAT; type: cell-based, human
Procedure: Astrocytoma and neuroblastoma cells were transfected with pSV2CAT or pSV2(APP)CAT by lipofection. Briefly, lipofectamine reagent (Boehringer) was added to DMEM (without serum) and allowed to sit 30 minutes at room temperature. Plasmids (10 μg) in an equal volume of DMEM were then added, and, after sitting for 45 minutes at room temperature, the lipid/DNA solution was added to 60% confluent cells on 100×20 mm cell culture plates. After 4 hours, this solution was removed, and the cells were washed twice in DMEM (without serum). Fresh DMEM medium (containing 10% fetal calf serum) was added. At this time, treatments were administered which included: (1) 0.5 ng/ml IL-1α; (2) 0.5 ng/ml IL-1β; (3) 5 μM Fe2TF (holo-transferrin); and (4) unstimulated controls. […]
After harvesting, cells were resuspended in 100 μl 0.25 M Tris, pH 7.8, and subjected to three cycles of freezing (liquid nitrogen) and […] (37° C.) to lyse cells. […] Protein concentration was determined by a Biorad assay, and exactly 20 μg of lysate was added to a CAT reaction mix containing 50 μl 1M Tris, pH 7.8, 20 μl acetylcoenzyme-A (3.5 mg/ml) and […] ^14C-labeled chloramphenicol (25 mCi/ml). […] For quantitative analysis, the areas on the TLC plates which aligned with dots on the film were excised and the radioactivity was counted in 5 ml of scintillation cocktail (Econofluor) using a scintillation counter (Hewlett Packard). […]

[2] = system: APP-mRNA; test: Northern blot of APP-mRNA, primary astrocytes; type: cell-based, human
Procedure: Total RNA (10 μg) was extracted from primary astrocytes and astrocytoma cells with a RNA-STAT kit (Tel-Test). RNA samples were denatured in 50% formamide/2.2 M formaldehyde/20 mM MOPS/5 mM sodium acetate/0.5 mM EDTA, pH 7.4, at 60° C. for 10 minutes, electrophoresed on 1.0% agarose-formaldehyde gels, blotted onto Hybond-N filters and immobilized by UV crosslinking and heating filters to 80° C. Filters were prehybridized for 3 hours and hybridized overnight in a solution consisting of 50% formamide, […] denatured salmon sperm DNA, 5×SSC, 0.1% sodium dodecyl sulfate and 5×Denhardt's solution. Following hybridization, filters were washed twice for a total of 1 hour in 2×SSC/0.2% sodium dodecyl sulfate at room temperature and twice each for a total of 1 hour in 0.5×SSC/0.1% sodium dodecyl sulfate at 55° C. Equal loading was verified by ethidium bromide staining, non-specific hybridization of the ACT probe to the 28S rRNA, and by standardized hybridization to the GAPDH cDNA probe as an internal standard. The APP cDNA probe corresponded to the unique internal 1 kb fragment gel purified from the 3 kb APP cDNA (Kang et al. Nature 325: 733 (1987)), the ACT cRNA probe to a PstI/SacI fragment (536-943) in the human ACT cDNA (Chandra, et al., Biochemistry 22: 5055 (1983)) and the GAPDH probe to the human GAPDH gene (Tokunaga, et al., Cancer Res. 47: 5616 (1987)).

Substance | effect on CAT activity, parental vector [1] | APP-mRNA levels (Northern blot, densitometry) [2]
interleukin-1β [IL-1β] | no effect | –
interleukin-1α [IL-1α] | – | unchanged
